The results in this text go back to ChEMBL document CHEMBL3045723, “Synthesis of novel 3-(5-sulfanyl-1,3,4-oxadiazol-2-yl)-2H-chromen-2-one condensed s-triazinyl piperazines and piperidines as antimicrobial agents” (2012).

As usually defined, the MIC is the smallest concentration in the dilution series that meets the test's criterion for growth inhibition. Low values mean inhibition by little substance, high ones a need for much substance.

In brackets after ≈: the same amount, converted by molar mass.

Format in all cases: functional
The test system of assay [1] is Escherichia coli. Kind of assay: Antibacterial activity against Escherichia coli MTCC 739 after 24 hr by agar disk diffusion test. A general note: A growth-free zone around the sample is the usual read-out of agar diffusion tests.
The subject of assay [2] is Proteus vulgaris. Kind of assay: Antibacterial activity against Proteus vulgaris MTCC 1771 after 24 hr. As to conditions: MTCC 1771, 24 h.
The test system of assay [3] is Aspergillus niger. Kind of assay: Antifungal activity against Aspergillus niger MTCC 282 after 48 hr. To be noted: MTCC 282, 48 h.
Assay [4] concerns Pseudomonas aeruginosa. The assay is described as follows: Antibacterial activity against Pseudomonas aeruginosa MTCC 741.
The test system of assay [5] is Klebsiella pneumoniae. Kind of assay: Antibacterial activity against Klebsiella pneumoniae MTCC 109 after 24 hr. To be noted: MTCC 109, 24 h.
For assay [6], the system named is Salmonella typhi. The assay is described as follows: Antibacterial activity against Salmonella enterica subsp. enterica serovar Typhi MTCC 733 after 24 hr. As to conditions: MTCC 733, 24 h.
The subject of assay [7] is Shigella flexneri. Kind of assay: Antibacterial activity against Shigella flexneri after 24 hr by agar disk diffusion test.
For assay [8], the system named is Staphylococcus aureus. Kind of assay: Antibacterial activity against Staphylococcus aureus MTCC 96 after 24 hr by agar disk diffusion test.
In assay [9] the test system is Escherichia coli. The assay is described as follows: Antibacterial activity against Escherichia coli MTCC 739 after 24 hr. To be noted: MTCC 739, 24 h.
The subject of assay [10] is Klebsiella pneumoniae. Kind of assay: Antibacterial activity against Klebsiella pneumoniae MTCC 109 after 24 hr by agar disk diffusion test.
The test system of assay [11] is Bacillus cereus. Kind of assay: Antibacterial activity against Bacillus cereus MTCC 619 after 24 hr by agar disk diffusion test.
Assay [12] relates to Pseudomonas aeruginosa. The assay is described as follows: Antibacterial activity against Pseudomonas aeruginosa MTCC 741 after 24 hr by agar disk diffusion test.
The subject of assay [13] is Aspergillus niger. Kind of assay: Antifungal activity against Aspergillus niger MTCC 282 after 24 hr by agar disk diffusion test.
Assay [14] has as its system Shigella flexneri. The assay is described as follows: Antibacterial activity against Shigella flexneri after 24 hr.
In assay [15] the test system is Bacillus cereus. The assay is described as follows: Antibacterial activity against Bacillus cereus MTCC 619 after 24 hr. As to conditions: MTCC 619, 24 h.
Assay [16] concerns Proteus vulgaris. Kind of assay: Antibacterial activity against Proteus vulgaris MTCC 1771 after 24 hr by agar disk diffusion test.
Assay [17] has as its system Salmonella typhi. The assay is described as follows: Antibacterial activity against Salmonella enterica subsp. enterica serovar Typhi MTCC 733 after 24 hr by agar disk diffusion test.
For assay [18], the system named is Staphylococcus aureus. Kind of assay: Antibacterial activity against Staphylococcus aureus MTCC 96 after 24 hr. As to conditions: MTCC 96, 24 h.
The subject of assay [19] is Candida albicans. Kind of assay: Antifungal activity against Candida albicans MTCC 183 after 24 hr by agar disk diffusion test.
The subject of assay [20] is Candida albicans. The assay is described as follows: Antifungal activity against Candida albicans MTCC 183 after 48 hr. To be noted: MTCC 183, 48 h.

For the compound `O=c1oc2ccccc2cc1-c1nnc(Sc2nc(Oc3cccc4cccnc34)nc(N3CCN(c4cccc(Cl)c4Cl)CC3)n2)o1`, the “inhibition zone (IZ)” value is 24 mm in assay [1]; 21 mm in [7]; 21 mm in assay [8]; 21 mm in assay [10]; 22 mm in assay [11]; 20 mm in assay [12]. For the same compound, the “inhibition zone (IZ)” value in assay [13] came out at 23 mm; in [16], 17 mm; in assay [17], 19 mm; in assay [19], 21 mm. In addition, the minimal inhibitory concentration (MIC) in [2] is 100 µg/mL (≈ 143 µM); in assay [3] it was 25 µg/mL (≈ 35.8 µM); in assay [4] it was 50 µg/mL (≈ 71.7 µM); in assay [5], 25 µg/mL (≈ 35.8 µM); in [6], 100 µg/mL (≈ 143 µM); in [9] it was 25 µg/mL (≈ 35.8 µM). The minimal inhibitory concentration (MIC) in assay [14] was 100 µg/mL (≈ 143 µM); in assay [15] it was 25 µg/mL (≈ 35.8 µM); in assay [18] it was 50 µg/mL (≈ 71.7 µM); in assay [20] it was 50 µg/mL (≈ 71.7 µM).
Take `O=c1oc2ccccc2cc1-c1nnc(Sc2nc(Oc3cccc4cccnc34)nc(N3CCCCC3)n2)o1`: the “inhibition zone (IZ)” value in assay [1] was under 10 mm; in assay [7], under 10 mm; in [8], 11 mm; in assay [10], 20 mm; in [11] it was under 10 mm; in [12], 15 mm. In addition, the “inhibition zone (IZ)” value in [13] was under 10 mm; in assay [16], under 10 mm; in assay [17] it was 14 mm; in assay [19], under 10 mm. Moreover, the MIC in assay [2] came to 100 µg/mL (≈ 181 µM); in [3], 100 µg/mL (≈ 181 µM); in assay [4], 100 µg/mL (≈ 181 µM); in assay [5], 50 µg/mL (≈ 90.6 µM); in [6] it was 100 µg/mL (≈ 181 µM); in assay [9], 100 µg/mL (≈ 181 µM). Besides, the MIC in [14], in assay [15], in assay [18] and in [20] was 100 µg/mL (≈ 181 µM) throughout.
In the case of `O=c1oc2ccccc2cc1-c1nnc(Sc2nc(Oc3cccc4cccnc34)nc(N3CCOCC3)n2)o1`, the “inhibition zone (IZ)” value in assay [1] is reported as under 10 mm; in assay [7] it was 11 mm; in assay [8], 14 mm; in assay [10], 22 mm; in assay [11] it was 15 mm; in [12] it was 16 mm. Further, the “inhibition zone (IZ)” value is 12 mm in assay [13], under 10 mm in assay [16], 16 mm in [17] and under 10 mm in [19]. In addition, the MIC in [2] stood at 100 µg/mL (≈ 181 µM); in assay [3] it was 100 µg/mL (≈ 181 µM); in assay [4] it was 100 µg/mL (≈ 181 µM); in [5] it was 25 µg/mL (≈ 45.2 µM); in assay [6], 100 µg/mL (≈ 181 µM); in assay [9], 100 µg/mL (≈ 181 µM). For the same compound, the MIC in [14], in assay [15], in assay [18] and in assay [20] was 100 µg/mL (≈ 181 µM) in each case.
Regarding `O=c1oc2ccccc2cc1-c1nnc(Sc2nc(Oc3cccc4cccnc34)nc(N3CCN(c4ccccc4)CC3)n2)o1`, the “inhibition zone (IZ)” value in assay [1] is reported as under 10 mm; in assay [7], under 10 mm; in assay [8], under 10 mm; in assay [10] it was 11 mm; in assay [11] it was 12 mm; in [12], 13 mm. Besides, the “inhibition zone (IZ)” value in [13] was under 10 mm; in [16], 15 mm; in assay [17], under 10 mm; in [19], under 10 mm. Further, the MIC in assay [2], in [3], in [4], in assay [5], in assay [6] and in [9] was 100 µg/mL (≈ 159 µM) each time. For the same compound, the MIC in assay [14], in [15], in [18] and in assay [20] was 100 µg/mL (≈ 159 µM) throughout.
Turning to `CC(=O)N1CCN(c2nc(Oc3cccc4cccnc34)nc(Sc3nnc(-c4cc5ccccc5oc4=O)o3)n2)CC1`, the “inhibition zone (IZ)” value in assay [1] was 15 mm; in [7], 23 mm; in [8] it was 20 mm; in assay [10] it was 13 mm; in assay [11], 22 mm; in assay [12], 23 mm. In addition, the “inhibition zone (IZ)” value in assay [13] is listed as 16 mm; in assay [16], 18 mm; in [17], 22 mm; in [19] it was 13 mm. The MIC was 100 µg/mL (≈ 168 µM) in assay [2]; 100 µg/mL (≈ 168 µM) in assay [3]; 12.5 µg/mL (≈ 21 µM) in [4]; 100 µg/mL (≈ 168 µM) in [5]; 12.5 µg/mL (≈ 21 µM) in [6]; 100 µg/mL (≈ 168 µM) in assay [9]. Further, the MIC in [14] came out at 25 µg/mL (≈ 42 µM); in [15], 25 µg/mL (≈ 42 µM); in assay [18], 50 µg/mL (≈ 84.1 µM); in assay [20], 100 µg/mL (≈ 168 µM).
Turning to `CC(C)N1CCN(c2nc(Oc3cccc4cccnc34)nc(Sc3nnc(-c4cc5ccccc5oc4=O)o3)n2)CC1`, the “inhibition zone (IZ)” value in [1] came to 16 mm; in [7], 24 mm; in [8], 19 mm; in assay [10] it was 14 mm; in [11], 16 mm; in [12], 21 mm. Moreover, the “inhibition zone (IZ)” value in assay [13] was 12 mm; in assay [16] it was 15 mm; in assay [17], 20 mm; in assay [19] it was 11 mm. The MIC in assay [2] stood at 100 µg/mL (≈ 168 µM); in [3] it was 100 µg/mL (≈ 168 µM); in assay [4], 25 µg/mL (≈ 42 µM); in assay [5] it was 100 µg/mL (≈ 168 µM); in assay [6], 50 µg/mL (≈ 84.1 µM); in [9], 100 µg/mL (≈ 168 µM). Also, the MIC was determined as 25 µg/mL (≈ 42 µM) in assay [14], 100 µg/mL (≈ 168 µM) in [15], 100 µg/mL (≈ 168 µM) in [18] and 100 µg/mL (≈ 168 µM) in assay [20].
For the compound `O=c1oc2ccccc2cc1-c1nnc(Sc2nc(Oc3cccc4cccnc34)nc(N3CCN(c4ccccn4)CC3)n2)o1`, the “inhibition zone (IZ)” value in assay [1] was found to be 15 mm; in assay [7] it was 22 mm; in assay [8] it was 21 mm; in assay [10] it was 22 mm; in assay [11], 21 mm; in assay [12], 18 mm. Moreover, the “inhibition zone (IZ)” value in [13] is 14 mm; in assay [16], 14 mm; in [17], 14 mm; in [19] it was 17 mm. The MIC in assay [2] is 100 µg/mL (≈ 159 µM); in assay [3], 100 µg/mL (≈ 159 µM); in [4] it was 100 µg/mL (≈ 159 µM); in assay [5] it was 25 µg/mL (≈ 39.7 µM); in assay [6], 100 µg/mL (≈ 159 µM); in assay [9], 100 µg/mL (≈ 159 µM). Further, the MIC in assay [14] came to 50 µg/mL (≈ 79.4 µM); in assay [15], 50 µg/mL (≈ 79.4 µM); in [18], 50 µg/mL (≈ 79.4 µM); in assay [20], 100 µg/mL (≈ 159 µM).
As to `O=c1oc2ccccc2cc1-c1nnc(Sc2nc(Oc3cccc4cccnc34)nc(N3CCN(c4ncccn4)CC3)n2)o1`, the “inhibition zone (IZ)” value was found to be 19 mm in assay [1]; 22 mm in [7]; 21 mm in [8]; 22 mm in [10]; 22 mm in assay [11]; 18 mm in assay [12]. For the same compound, the “inhibition zone (IZ)” value was 16 mm in assay [13], 16 mm in [16], 18 mm in [17] and 17 mm in [19]. Moreover, the MIC turned out to be 100 µg/mL (≈ 159 µM) in [2]; 100 µg/mL (≈ 159 µM) in [3]; 100 µg/mL (≈ 159 µM) in assay [4]; 25 µg/mL (≈ 39.6 µM) in assay [5]; 100 µg/mL (≈ 159 µM) in [6]; 100 µg/mL (≈ 159 µM) in [9]. Further, the MIC in [14] is 50 µg/mL (≈ 79.3 µM); in assay [15], 25 µg/mL (≈ 39.6 µM); in assay [18], 50 µg/mL (≈ 79.3 µM); in assay [20], 100 µg/mL (≈ 159 µM).
As to `O=c1oc2ccccc2cc1-c1nnc(Sc2nc(Oc3cccc4cccnc34)nc(N3CCN(Cc4ccccc4)CC3)n2)o1`, the “inhibition zone (IZ)” value in [1] is 16 mm; in assay [7] it was 13 mm; in assay [8], 13 mm; in assay [10], under 10 mm; in assay [11] it was 17 mm; in assay [12] it was 19 mm. In addition, the “inhibition zone (IZ)” value in assay [13], in assay [16], in [17] and in [19] was under 10 mm each time. For the same compound, the MIC in assay [2], in [3], in assay [4], in [5], in assay [6] and in [9] was 100 µg/mL (≈ 156 µM) in each case. Besides, the MIC in assay [14], in [15], in assay [18] and in [20] was 100 µg/mL (≈ 156 µM) in each case.
